Experimental data from patent US9161935B2 (TEVA PHARMACEUTICAL INDUSTRIES, LTD., priority 2012, dated 2015).

Experiments:
[1] = system: Moderate to severe Crohn's disease (CD) subjects; test: Phase IIa trial CD-LAQ-201: clinical effect (CDAI remission, response); assay type: in vivo, human; details: for effects on remission and response 100: week 8
Protocol: Overall up to ˜180 Crohn's disease patients are enrolled.
The capsules were prepared using a blend proportional to the 0.6 mg capsules described in PCT International Application No. PCT/US2007/013721 (WO 2007/146248). The capsules were prepared according to the method described in PCT International Application No. PCT/US2007/013721 (WO 2007/146248), which is hereby incorporated by reference into this application.
A loading dose regimen of double the maintenance/intended dose was given during the first two days of study drug treatment. Thereafter, starting on day 3, the daily maintenance/intended dose was administered.
Subjects are required to maintain CDAI diary cards for each day of the screening period and, if randomized, on each day of the treatment and follow-up period. The scores obtained from the seven consecutive diaries completed prior to the baseline visit and to each of weeks 1, 2, 4, 6, 8 and 12 contribute to a total CDAI score at each of the time points.
Moderate to severe Crohn's disease (CD) subjects as determined by a Crohn's Disease Activity Index (CDAI) score of 220-450 (inclusive).
Each dose was studied sequentially in a distinct cohort.
Scheduled in-clinic visits were conducted at screening, baseline and at weeks 1, 2, 4, 6 and 8. […] Subjects who early-discontinues study drug prior to visit week 8 go to follow-up termination visit within 4 weeks (28 days) of study drug discontinuation.
The study exploratory efficacy outcome measures were chosen according to the draft EMEA guidelines for the treatment of active Crohn's disease/induction of remission (EMEA, 2007) • 1. Proportion of subjects in clinical remission (total CDAI score <150) at weeks 4, 6, 8 and 12 (and were not treatment failures). • 2. Proportion of subjects who respond to treatment (decrease from baseline of at least 100 points in CDAI score ore remission) at week 4, 6, 8 and 12. • 3. Time to remission. • 4. Time to response. • 5. C-Reactive Protein (CRP) change from baseline at weeks 2, 4, 6, 8 and 12. • 6. Fecal calprotectin change from baseline to weeks 2, 4, 6, 8 and 12. • 7. Proportion of subjects with a decrease from baseline of at least 50% in the number of open draining fistulas.

fecal calprotectin = test: Phase IIa trial CD-LAQ-201: changes in fecal calprotectin levels; assay type: in vivo, human; details: for % of patients with a calprotectin decrease from ≧250 μg/g to below 250 μg/g & greater than 50% reduction: Week 8
Text: As used herein, “calprotectin” is a calcium and zinc binding anti-microbial protein released by granulocytes. This protein can be detected in stool and its concentration reflects the number of polymorphonuclear leukocytes (PMN), migrating into the gut lumen. It is therefore considered a bio-marker for intestinal inflammation. […] Proportion of subjects in clinical remission (total CDAI score <150) at weeks 4, 6, 8 and 12 (and were not treatment failures). • 2. Proportion of subjects who respond to treatment (decrease from baseline of at least 100 points in CDAI score ore remission) at week 4, 6, 8 and 12. • 3. Time to remission. • 4. Time to response. • 5. C-Reactive Protein (CRP) change from baseline at weeks 2, 4, 6, 8 and 12. • 6. Fecal calprotectin change from baseline to weeks 2, 4, 6, 8 and 12. • 7. Proportion of subjects with a decrease from baseline of at least 50% in the number of open draining fistulas.

[2] = Previous pharmacokinetic studies of laquinimod; assay type: in vivo; details: loading dose regimen (double dose on first two days)
Text: In order to decrease thee time to steady state and potentially decrease time to response, a loading dose regimen described below was used to allow steady state levels to be reached in approximately 6-7 days.

[3] = system: Subjects with moderate to severe Crohn's disease (CD); test: Phase IIb trial LAQ-CD-202 (Example 3); assay type: in vivo, human
Protocol: Capsules should be swallowed with a glass of water.
On Days 1 and 2, this dose is administered twice daily (BID) as a loading dose (total daily dose 0.5 mg). Dosing is once daily (QD) from Day 3 onwards.
On Days 1 and 2, this dose is administered BID as a loading dose (total daily dose 1 mg). Dosing is QD from Day 3 onwards.
Subjects with moderate to severe Crohn's disease (CD), as determined by a Crohn's Disease Activity Index (CDAI) score of 220-450 (inclusive).
Remission: subjects with CDAI <150 subjects not designated a Treatment Failure (TF).
Response 100: reduction of CDAI by at least 100 points compared to Baseline in subjects not designated a Treatment Failure (TF). Any subject with Remission is also considered to have achieved Response 100.
Response 70: reduction of CDAI by at least 70 points compared to Baseline, in subjects not designated a TF.
IBDQ Response: An increase from baseline in total IBDQ score of ≧16 points.
IBDQ Remission: A total IBDQ score of >170 points.
Treatment duration is 8 weeks. Scheduled in-clinic visits are conducted at Screening, Baseline (Week 0), and at Weeks 1, 2, 4, 6, and 8. Unscheduled visits for safety or for any other reason may be conducted at any time during the study
A loading dose regimen of the study drug is given during the first 2 days of treatment (Day 1 [Baseline] and Day 2). The first loading dose of the study drug is administered at the site. The loading dose doubles the intended dose for the first 2 days and is administered BID with 12-hour intervals between dosing. Thereafter, starting on Day 3, the dosing regimen consists of the intended dose QD.
During the study period the CDAI score is assessed in addition to routine safety. Subjects are required to maintain CDAI diaries for each day of the Screening period and, if randomized, on each day of the treatment period. The scores obtained from the 7 consecutive diaries completed prior to the Baseline visit and to each of Weeks 1, 2, 4, 6, and 8 contribute to a total CDAI score at each of these time points.
The primary efficacy endpoint is the proportion of subjects achieving Remission (CDAI <150) at Week 8 with subjects not designated a Treatment Failure (TF).
Secondary Efficacy Endpoints: • Proportion of subjects achieving Response 70 at Week 8. • Proportion of subjects achieving Response 100 at Week 8. • Mean change in total IBDQ score from Baseline to Week 8. • Proportion of subjects with an IBDQ Response at Week 8. • Proportion of subjects with IBDQ Remission at Week 8.

CCN(C(=O)c1c(O)c2c(Cl)cccc2n(C)c1=O)c1ccccc1 [laquinimod]
effects on remission and response 100 ([1]; 0.5 mg/day): effects on remission and response 100 were observed | effects on remission and response 100 ([1]; 1 mg/day): lower magnitude effects | effects on remission and response (conclusion) ([1]; 0.5 and 1 mg doses): clinically relevant effects | time at which clinical remission was achieved ([1]; laquinimod 0.5 mg/day group): ≥ 2 week | time at which response 100 was achieved ([1]; laquinimod 0.5 mg/day group): 7 days | time to clinical remission and response 100 versus pooled placebo ([1]; laquinimod 0.5 mg/day group): earlier than patients in the pooled placebo group | % Change from Baseline in fecal calprotectin level at Week 8, Mean ± SD (fecal calprotectin; Laq 0.5 mg): 25.5 ± 132.93% | % Change from Baseline in fecal calprotectin level at Week 8, Median (fecal calprotectin; Laq 0.5 mg): −23.1% | % of patients with a calprotectin decrease from ≧250 μg/g to below 250 μg/g & greater than 50% reduction (fecal calprotectin; Laq 0.5 mg): 38.9% | % Change from Baseline in fecal calprotectin level at Week 8, Mean ± SD (fecal calprotectin; Laq 1.0 mg): 0.2 ± 91.55% | % Change from Baseline in fecal calprotectin level at Week 8, Median (fecal calprotectin; Laq 1.0 mg): −14.4% | % of patients with a calprotectin decrease from ≧250 μg/g to below 250 μg/g & greater than 50% reduction (fecal calprotectin; Laq 1.0 mg): 38.9% | % Change from Baseline in fecal calprotectin level at Week 8, Mean ± SD (fecal calprotectin; Laq 1.5 mg): 13.9 ± 108.97% | % Change from Baseline in fecal calprotectin level at Week 8, Median (fecal calprotectin; Laq 1.5 mg): −18.7% | % of patients with a calprotectin decrease from ≧250 μg/g to below 250 μg/g & greater than 50% reduction (fecal calprotectin; Laq 1.5 mg): 26.7% | % Change from Baseline in fecal calprotectin level at Week 8, Mean ± SD (fecal calprotectin; Laq 2.0 mg): 44.3 ± 198.71% | % Change from Baseline in fecal calprotectin level at Week 8, Median (fecal calprotectin; Laq 2.0 mg): −20.1% | % of patients with a calprotectin decrease from ≧250 μg/g to below 250 μg/g & greater than 50% reduction (fecal calprotectin; Laq 2.0 mg): 36.4% | effect on fecal calprotectin (fecal calprotectin; all doses (0.5-2 mg/day)): reduced fecal calprotectin | objective measures of intestinal inflammation in active CD (fecal calprotectin; all doses (LAQ 0.5-2 mg/day)): reduce objective measures of intestinal inflammation | percentage of patients with fecal calprotectin ≧250 μg/g at baseline showing at least a 50% reduction and levels <250 μg/g at Week 8 (fecal calprotectin; laquinimod groups (all doses), pooled placebo 13.6%): 26.7-38.9% | time to steady state levels [2]: 6 to 7 days | improve IBDQ score from Baseline by Week 8 ([3]; 0.25 mg/day): effective | induce IBDQ Response and/or IBDQ Remission by Week 8 ([3]; 0.25 mg/day): effective | induce Remission (CDAI <150) by Week 8 ([3]; 0.25 mg/day): effective | induce Response 70 and/or Response 100 by Week 8 ([3]; 0.25 mg/day): effective | improve IBDQ score from Baseline by Week 8 ([3]; 0.5 mg/day): effective | induce IBDQ Response and/or IBDQ Remission by Week 8 ([3]; 0.5 mg/day): effective | induce Remission (CDAI <150) by Week 8 ([3]; 0.5 mg/day): effective | induce Response 70 and/or Response 100 by Week 8 ([3]; 0.5 mg/day): effective
